Measured values from patent publication US6706663B2, “Herbicidal 3-heterocyclic substituted benzisothiazole and benzisoxazole compounds” (Wyeth, priority 2000, dated 2004).

How the values were obtained:
[1] = tested on: ABUTH (Abutilon theophrasti); assay: Postemergence herbicidal evaluation; assay type: in vivo, Medic.; details: postemergence
Procedure, shortened: (§1)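 Seedlings grown about two weeks in flats, sprayed, then kept under standard greenhouse care. Rated visually 4–5 weeks after treatment on a 0–9 scale (stand, vigour, malformation, size, chlorosis, overall appearance) relative to untreated control; repeat tests averaged.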

[2] = tested on: AMBEL (Ambrosia artemisifolia); assay: Postemergence herbicidal evaluation; assay type: in vivo, L.; details: postemergence
Procedure, shortened: as §1

[3] = tested on: CASOB (Cassia obtusifolia); assay: Postemergence herbicidal evaluation; assay type: in vivo, L.; details: postemergence
Procedure, shortened: as §1

[4] = tested on: CHEAL (Chenopodium album); assay: Postemergence herbicidal evaluation; assay type: in vivo, L.; details: postemergence
Procedure, shortened: as §1

GALAP (Galium aparine) = assay: Postemergence herbicidal evaluation; assay type: in vivo; details: postemergence
Procedure, shortened: as §1

[5] = tested on: IPOHE (Ipomoea hederacea); assay: Postemergence herbicidal evaluation; assay type: in vivo, (L.) Jacq.; details: postemergence
Procedure, shortened: as §1

[6] = tested on: ECHCG (Echinochloa crus-galli); assay: Postemergence herbicidal evaluation; assay type: in vivo, (L.) Beau; details: postemergence
Procedure, shortened: as §1

[7] = tested on: GLXMAW (Soybean, Williams); assay: Postemergence herbicidal evaluation; assay type: in vivo, Glycine max, (L.) Merr. cv Williams; details: postemergence
Procedure, shortened: as §1

ORYSAT (Rice, Tebonnet) [8] = assay: Postemergence herbicidal evaluation; assay type: in vivo, Oryza sativa, (L.) Tebonnet; details: postemergence
Procedure, shortened: as §1

[9] = tested on: TRZAWR (Wheat, Winter, cv Riband); assay: Postemergence herbicidal evaluation; assay type: in vivo, Triticum aestivum; details: postemergence
Procedure, shortened: as §1

ZEAMX (Corn, Field) [10] = assay: Postemergence herbicidal evaluation; assay type: in vivo, Zea mays, L.; details: postemergence
Procedure, shortened: as §1

[11] = tested on: ABUTH (Abutilon theophrasti); assay: Preemergence herbicidal evaluation; assay type: in vivo, Medic.; details: preemergence, rated 4-5 weeks after treatment
[12] = tested on: AMBEL (Ambrosia artemisifolia); assay: Preemergence herbicidal evaluation; assay type: in vivo, L.; details: preemergence, rated 4-5 weeks after treatment
Procedure, shortened: (§2)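 Applied before emergence as an aqueous acetone spray over seeded soil. Read-out: 0–9 visual rating covering plant stand, vigor, size, chlorosis, malformation and overall appearance compared with control, taken 4–5 weeks after spraying.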

[13] = tested on: IPOHE (Ipomoea hederacea); assay: Preemergence herbicidal evaluation; assay type: in vivo, (L.) Jacq.; details: preemergence, rated 4-5 weeks after treatment
[14] = tested on: ECHCG (Echinochloa crus-galli); assay: Preemergence herbicidal evaluation; assay type: in vivo, (L.) Beau; details: preemergence, rated 4-5 weeks after treatment
Procedure, shortened: as §2

GLXMA (Soybean) = assay: Preemergence herbicidal evaluation; assay type: in vivo, Glycine max, (L.) Merr.; details: preemergence, rated 4-5 weeks after treatment
ZEAMX (Corn, Field) [15] = assay: Preemergence herbicidal evaluation; assay type: in vivo, Zea mays, L.; details: preemergence, rated 4-5 weeks after treatment
[16] = tested on: ECHORC (Echinochloa oryzoides); assay: Flooded paddy, preemergence weed control; assay type: in vivo, Echinochloa oryzoides (Ard.) Fritsch.; details: rated 3-4 weeks after treatment, 0-9 rating scale
Procedure, shortened: (§3)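 Under paddy conditions, seeds or vegetative propagules go into the top 0.5 cm of silt loam; the soil is then flooded to 1.5–3 cm and kept so. Treated pots stay in a greenhouse; response is rated 0-9 visually versus control.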

CYPIR (Cyperus iria) = assay: Flooded paddy, preemergence weed control; assay type: in vivo; details: rated 3-4 weeks after treatment, 0-9 rating scale
Procedure, shortened: as §3

[17] = tested on: MOOVA (Monochoria vaginalis); assay: Flooded paddy, preemergence weed control; assay type: in vivo, Presl.; details: rated 3-4 weeks after treatment, 0-9 rating scale
Procedure, shortened: as §3

[18] = tested on: SAGPY (Sagittaria pygmaea); assay: Flooded paddy, preemergence weed control; assay type: in vivo, L.; details: rated 3-4 weeks after treatment, 0-9 rating scale
Procedure, shortened: as §3

ORYSAT (Rice, Tebonnet) [19] = assay: Flooded paddy, post-transplant rice tolerance; assay type: in vivo, Oryza sativa, (L.) Tebonnet; details: flooded paddy, post-transplant rice; rate 0.1250 kg/ha; rated 3-4 weeks after treatment; 0-9 rating scale
Procedure, shortened: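 Seedlings aged ten days are transplanted in pairs into undrained pots of silt loam, which are then flooded to a depth of 1.5 to 3 cm. After herbicide application the pots are kept in a greenhouse with the flood maintained. Plants are rated 0-9 by visual comparison with controls.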

COC1(c2nsc3ccc(-n4c(=O)cc(C(F)(F)F)n(C)c4=O)cc23)N=C(N(C)C)NC1=O (stereo not shown) [Compound 93, 3-[3-[2-(dimethylamino)-4-methoxy-5-oxo-2-imidazolin-4-yl]-1,2-benzisothiazol-5-yl]-1-methyl-6-(trifluoromethyl)uracil]
3.0: Preemergence herbicidal rating IPOHE ([13]; rate 0.0620 kg/ha)
8.0: ORYSAT herbicidal rating (ORYSAT (Rice, Tebonnet) [8]; rate 0.0620 kg/ha) | ORYSAT herbicidal rating (transplanted rice tolerance) (ORYSAT (Rice, Tebonnet) [19])
4.0: ORYSAT herbicidal rating (ORYSAT (Rice, Tebonnet) [8]; rate 0.0320 kg/ha) | Preemergence herbicidal rating AMBEL ([12]; rate 0.0620 kg/ha) | Preemergence herbicidal rating ECHCG ([14]; rate 0.2500 kg/ha) | Preemergence herbicidal rating GLXMA (GLXMA (Soybean); rate 0.0620 kg/ha)
5.5: TRZAWR herbicidal rating ([9]; rate 0.0320 kg/ha) | ZEAMX herbicidal rating (ZEAMX (Corn, Field) [10]; rate 0.0320 kg/ha) | ZEAMX herbicidal rating (ZEAMX (Corn, Field) [10]; rate 0.0620 kg/ha)
6.0: Preemergence herbicidal rating GLXMA (GLXMA (Soybean); rate 0.1250 kg/ha) | ECHORC herbicidal rating ([16]; rate 0.1250 kg/ha)
0.0: Preemergence herbicidal rating ECHCG ([14]; rate 0.0620 kg/ha) | Preemergence herbicidal rating ECHCG ([14]; rate 0.1250 kg/ha) | Preemergence herbicidal rating ZEAMX (ZEAMX (Corn, Field) [15]; rate 0.0620 kg/ha) | Preemergence herbicidal rating ZEAMX (ZEAMX (Corn, Field) [15]; rate 0.1250 kg/ha) | Preemergence herbicidal rating ZEAMX (ZEAMX (Corn, Field) [15]; rate 0.2500 kg/ha) | ECHORC herbicidal rating ([16]; rate 0.0320 kg/ha) | CYPIR herbicidal rating (CYPIR (Cyperus iria); rate 0.0320 kg/ha) | MOOVA herbicidal rating ([17]; rate 0.0320 kg/ha) | SAGPY herbicidal rating ([18]; rate 0.0320 kg/ha)
7.0: CASOB herbicidal rating ([3]; rate 0.0320 kg/ha) | Preemergence herbicidal rating AMBEL ([12]; rate 0.1250 kg/ha) | Preemergence herbicidal rating GLXMA (GLXMA (Soybean); rate 0.2500 kg/ha)
9.0: ABUTH herbicidal rating ([1]; rate 0.0320 kg/ha) | ABUTH herbicidal rating ([1]; rate 0.0620 kg/ha) | AMBEL herbicidal rating ([2]; rate 0.0320 kg/ha) | AMBEL herbicidal rating ([2]; rate 0.0620 kg/ha) | CASOB herbicidal rating ([3]; rate 0.0620 kg/ha) | CHEAL herbicidal rating ([4]; rate 0.0320 kg/ha) | CHEAL herbicidal rating ([4]; rate 0.0620 kg/ha) | GALAP herbicidal rating (GALAP (Galium aparine); rate 0.0320 kg/ha) | GALAP herbicidal rating (GALAP (Galium aparine); rate 0.0620 kg/ha) | IPOHE herbicidal rating ([5]; rate 0.0320 kg/ha) | IPOHE herbicidal rating ([5]; rate 0.0620 kg/ha) | ECHCG herbicidal rating ([6]; rate 0.0320 kg/ha) | ECHCG herbicidal rating ([6]; rate 0.0620 kg/ha) | GLXMAW herbicidal rating ([7]; rate 0.0320 kg/ha) | GLXMAW herbicidal rating ([7]; rate 0.0620 kg/ha) | Preemergence herbicidal rating ABUTH ([11]; rate 0.0620 kg/ha) | Preemergence herbicidal rating ABUTH ([11]; rate 0.1250 kg/ha) | Preemergence herbicidal rating ABUTH ([11]; rate 0.2500 kg/ha) | Preemergence herbicidal rating AMBEL ([12]; rate 0.2500 kg/ha) | Preemergence herbicidal rating IPOHE ([13]; rate 0.1250 kg/ha) | Preemergence herbicidal rating IPOHE ([13]; rate 0.2500 kg/ha) | CYPIR herbicidal rating (CYPIR (Cyperus iria); rate 0.1250 kg/ha) | MOOVA herbicidal rating ([17]; rate 0.1250 kg/ha) | SAGPY herbicidal rating ([18]; rate 0.1250 kg/ha)
7.5: TRZAWR herbicidal rating ([9]; rate 0.0620 kg/ha)
